For assay [1], the target named is T1, Rat Hepatic V1 Receptors (vasopressin V1) (Rattus norvegicus, UniProt P30560).
T1 construct: Rat liver plasma membranes expressing the vasopressin V1 receptor subtypes are isolated by sucrose density gradient; from tissue; host or cells: rat liver plasma membranes
Put plainly: Binding Assay to Rat Hepatic V1 Receptors. The settings on record: rat hepatic V1, [3H]vasopressin. The method, then:
Binding Assay to Rat Hepatic V1 Receptors
Rat liver plasma membranes expressing the vasopressin V1 receptor subtypes are isolated by sucrose density gradient according to the method described by Lesko et al., (1973). These membranes are quickly suspended in 50.0 mMTris.HCl buffer, pH 7.4, containing 0.2% bovine serum albumin (BSA) and 0.1 mM phenylmethylsulfonylfluoride (PMSF) and kept frozen at -70° C. until used in subsequent binding experiments. For binding experiments, the following is added to the wells of a ninety-six well format microtiter plate: 100 μl of 100.0 mM Tris.HCl buffer containing 10.0 mM MgCl2, 0.2% heat inactivated BSA and a mixture of protease inhibitors: leupeptin, 1.0 mg %; aprotinin, 1.0 mg %, 1,10-phenanthroline,2.0 mg %; trypsin inhibitor, 10.0 mg % and 0.1 mM PMSF, 20.0 μl of [phenylalanyl-3,4,5-^3 H]vasopressin (S.A. 45.1 Ci/mmole) at 0.8 nM, and the reaction initiated by the addition of 80 μl of tissue membranes containing 20 μg of tissue protein. The plates are kept undisturbed on the bench top at room temperature for 120 min. to reach equilibrium. Nonspecific samples are assayed in the presence of 0.1 μM of the unlabeled antagonist phenylalanylvasopressin, added in 20.0 μl volume to a final incubation volume of 200 μl. Upon completion of binding, the content of each well is filtered off, using a Brandel® cell Harvester (Gaithersburg, Md.). The radioactivity trapped on the filter disk by the ligand-receptor complex is assessed by liquid scintillation counting in a Packard LS Counter, with an efficiency of 65% for tritium. The data are analyzed for IC50 values by the LUNDON-2 program for competition (LUNDON SOFTWARE, OH).

Assay [2] concerns the target T2, Rat Kidney Medullary V2 Receptors (vasopressin V2) (Rattus norvegicus, UniProt Q00788).
T2 construct: Medullary tissues from rat kidneys are dissected out; from tissue; host or cells: rat kidney medulla membranes
Briefly: Binding Assay to Rat Kidney Medullary V2 Receptors. Particulars: rat kidney medullary V2, [3H]Arg8-vasopressin. In short, it runs like this:
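Membranes from rat kidney medulla (200 μg protein) were equilibrated for 120 min on the bench with [3H]arginine8-vasopressin, added as a 0.8 nM solution, in Tris-HCl containing MgCl2, heat-inactivated BSA and protease inhibitors. Compounds were dissolved in 50% DMSO, and 1.0 μM unlabeled ligand gave nonspecific binding. Filtration, scintillation counting and competition analysis gave IC50.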

The subject of assay [3] is Vasopressin V2. Briefly: Vasopressin V2 Antagonist Activity in Conscious Hydrated Rats. The format is in vivo, rat. The settings on record: AVP 0.4 μg/kg i.p. The method, then: Vasopressin V2 Antagonist Activity in conscious Hydrated Rats Conscious hydrated rats are treated with compounds under study from 0.1 to 100 mg/kg orally or vehicle. Two to four rats are used for each compound. One hour later, arginine vasopressin (AVP, antidiuretic hormone, ADH) dissolved in peanut oil is administered at 0.4 μg/kg intraperitoneally. Two rats in each test would not receive arginine vasopressin but only the vehicle (peanut oil) to serve as water-loading control. Twenty minutes later each rat is given 30 mL/kg of deionized water orally by gavage and is placed individually in a metabolic cage equipped with a funnel and a graduated glass cylinder to collect urine for four hours. Urine volume is measured and osmolality analyzed by use of a Fiske One-Ten osmometer (Fiske Assoc., Norwood, Mass. USA). Urinary sodium, potassium, and chloride are analyzed by use of ion-specific electrodes in a Beckman E3 (Electrolyte 3) Analyzer. In the following results, […] and […] osmolality relative to AVP-control indicates activity.

T1 sequence (P30560 whole entry): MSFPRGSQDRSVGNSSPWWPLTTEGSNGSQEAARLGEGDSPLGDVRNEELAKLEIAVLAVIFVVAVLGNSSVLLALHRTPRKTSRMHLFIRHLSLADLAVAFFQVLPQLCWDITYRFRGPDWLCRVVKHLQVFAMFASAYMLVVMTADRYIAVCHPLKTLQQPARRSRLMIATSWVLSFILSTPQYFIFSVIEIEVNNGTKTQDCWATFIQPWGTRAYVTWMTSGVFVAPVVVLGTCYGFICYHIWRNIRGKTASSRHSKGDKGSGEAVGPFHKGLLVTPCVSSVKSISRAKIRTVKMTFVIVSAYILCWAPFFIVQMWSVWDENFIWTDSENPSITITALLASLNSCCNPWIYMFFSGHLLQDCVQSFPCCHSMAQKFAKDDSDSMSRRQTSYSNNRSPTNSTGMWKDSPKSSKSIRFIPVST
T2 sequence (Q00788 whole entry): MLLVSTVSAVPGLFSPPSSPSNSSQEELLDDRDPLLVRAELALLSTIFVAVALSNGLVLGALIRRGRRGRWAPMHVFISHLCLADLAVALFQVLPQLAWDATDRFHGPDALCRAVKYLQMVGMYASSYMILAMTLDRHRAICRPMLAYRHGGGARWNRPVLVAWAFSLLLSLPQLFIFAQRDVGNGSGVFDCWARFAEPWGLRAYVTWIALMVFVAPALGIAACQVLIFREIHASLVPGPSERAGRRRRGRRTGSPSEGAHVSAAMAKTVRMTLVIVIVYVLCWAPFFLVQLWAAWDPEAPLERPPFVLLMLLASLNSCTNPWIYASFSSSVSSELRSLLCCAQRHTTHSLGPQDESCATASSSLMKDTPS

On to `O=C(Nc1ccc(C(=O)N2CCCCc3sccc32)cc1)c1cc(Cl)ccc1Cl` [Example 9, N-[4-[(5,6,7,8-Tetrahydro-4H-thieno[3,2-b]azepin-4-yl)carbonyl]phenyl]2,5-dichlorobenzamide], for which the 50% inhibitory concentration (IC50) in assay [1] is 0.21 µM; in assay [2], 0.034 µM.

Take `Cc1ccccc1CC(=O)Nc1ccc(C(=O)N2CCCCc3sccc32)cc1` [Example 13, N-[4-[(5,6,7,8-Tetrahydro-4H-thieno[3,2-b]azepin-4-yl)carbonyl]phenyl]2-methylbenzeneacetamide]: the IC50 in assay [1] is 0.014 µM. The IC50 in assay [2] worked out at 0.01 µM. In assay [3] (30 mg/kg P.O.), the Osmolality turned out to be 516 mOsm/kg and the “Urine Volume” value turned out to be 9.5 ml/4 hours.

Consider `O=C(Nc1ccc(C(=O)N2CCCCc3sccc32)c(Cl)c1)c1ccc(Cl)cc1Cl` [Example 68, N-[4-[(5,6,7,8-Tetrahydro-4H-thieno[3,2-b]azepin-4-yl)carbonyl]-3-chlorophenyl]-2,4-dichlorobenzamide], for which, in assay [3] (10 mg/kg P.O.), the Osmolality stood at 647 mOsm/kg and the “Urine Volume” value came to 10.3 ml/4 hours.

As for `Cc1ccc(F)cc1C(=O)Nc1ccc(C(=O)N2CCCCc3sccc32)c(Cl)c1` [Example 70, N-[4-[(5,6,7,8-Tetrahydro-4H-thieno[3,2-b]azepin-4-yl)carbonyl]-3-chlorophenyl]-5-fluoro-2-methylbenzamide], in assay [3] (10 mg/kg P.O.), the Osmolality was found to be 1070 mOsm/kg and the “Urine Volume” value is listed as 4 ml/4 hours.

Molecule `O=C(Nc1ccc(C(=O)N2CCCCc3sc(Cl)cc32)cc1)c1ccc(Cl)cc1Cl` [Example 93, 2,4-Dichloro-N-[4-[(2-chloro-5,6,7,8-tetrahydro-4H-thieno[3,2-b]azepin-4-yl)carbonyl]phenyl]benzamide] came in with an IC50 in assay [1] of 0.23 µM. This molecule yielded an IC50 in assay [2] of 0.019 µM. Also, in assay [3] (10 mg/kg P.O.), the Osmolality was found to be 1056 mOsm/kg and the “Urine Volume” value turned out to be 7.6 ml/4 hours.

For `Cc1c(F)cccc1C(=O)Nc1ccc(C(=O)N2CCCCc3sc(Cl)cc32)cc1` [Example 94, N-[4-[(2-Chloro-5,6,7,8-tetrahydro-4H-thieno[3,2-b]azepin-4-yl)carbonyl]phenyl]-3-fluoro-2-methylbenzamide], the IC50 in assay [1] worked out at 0.16 µM; in assay [2], 0.01 µM. The molecule further had an Osmolality in assay [3] (10 mg/kg P.O.) of 910 mOsm/kg. The “Urine Volume” value in assay [3] (10 mg/kg P.O.) is 8.8 ml/4 hours.

Consider `O=C(Nc1ccc(C(=O)N2CCCCc3sc(Cl)cc32)cc1)c1c(Cl)cccc1Cl` [Example 95, N-[4-[(2-Chloro-5,6,7,8-tetrahydro-4H-thieno[3,2-b]azepin-4-yl)carbonyl]phenyl]-2,6-dichlorobenzamide], for which, in assay [3] (10 mg/kg P.O.), the Osmolality was 1122 mOsm/kg and the “Urine Volume” value is 5 ml/4 hours.

`Cc1ccccc1C(=O)Nc1ccc(C(=O)N2CCCCc3sc(Cl)cc32)cc1` [Example 96, N-[4-[(2-Chloro-5,6,7,8-tetrahydro-4H-thieno[3,2-b]azepin-4-yl)carbonyl]phenyl]-2-methylbenzamide] showed an IC50 in assay [1] of 0.088 µM. Also, the IC50 in assay [2] was determined as 0.01 µM. In assay [3] (30 mg/kg P.O.), the Osmolality worked out at 465 mOsm/kg and the “Urine Volume” value was found to be 16.1 ml/4 hours.

Take `Cc1c(F)cccc1C(=O)Nc1ccc(C(=O)N2CCCC(=O)c3sccc32)cc1` [Example 155, N-[4-[(5,6,7,8-Tetrahydro-8-oxo-4H-thieno[3,2-b]azepine-4-yl)carbonyl]phenyl]-3-fluoro-2-methylbenzamide]: the half-inhibitory concentration (IC50) is 7.6 µM in assay [1] and 0.25 µM in assay [2]. For the same molecule, the Osmolality in assay [3] (10 mg/kg P.O.) was 1053 mOsm/kg. In assay [3] (10 mg/kg P.O.), the “Urine Volume” value was found to be 4.5 ml/4 hours.

`O=C(Nc1ccc(C(=O)N2CCCC(=O)c3sccc32)cc1)c1ccc(Cl)cc1Cl` [Example 156, N-[4-[(5,6,7,8-Tetrahydro-8-oxo-4H-thieno[3,2-b]azepin-4-yl)carbonyl]-phenyl]-2,4-dichlorobenzamide] registered an IC50 in assay [1] of 5.5 µM. Further, in assay [2], the IC50 came to 0.33 µM. Also, in assay [3] (10 mg/kg P.O.), the Osmolality is listed as 1266 mOsm/kg and the “Urine Volume” value was determined as 3.8 ml/4 hours.

As for `Cc1ccccc1C(=O)Nc1ccc(C(=O)N2CCCC(=O)c3sccc32)cc1` [Example 157, N-[4-[(5,6,7,8-Tetrahydro-8-oxo-4H-thieno[3,2-b]azepin-4-yl)carbonyl]-phenyl]-2-methylbenzamide], the concentration for half-maximal inhibition (IC50) in assay [1] was determined as 3.6 µM. This molecule gave an IC50 in assay [2] of 0.25 µM. For the same molecule, in assay [3] (10 mg/kg P.O.), the Osmolality is listed as 1070 mOsm/kg and the “Urine Volume” value worked out at 6.5 ml/4 hours.

With `O=C(Nc1ccc(C(=O)N2CCCCc3sccc32)c(Cl)c1)c1ccc(F)cc1Cl` [Example 183], in assay [3] (10 mg/kg P.O.), the Osmolality is reported as 512 mOsm/kg and the “Urine Volume” value came to 8.3 ml/4 hours.

The record behind these values is patent publication US5696112A, “Fused heterocyclic azepines as vasopressin antagonists” (American Cyanamid Company, priority 1995, dated 1997).
